Data set [1] is described as follows: Experiment on stability of simvastatin. Format: physicochemical. Particulars: under pH of 5-7.
For data set [2], the system named is patients (clinical cases). The data set can be described thus: Summary of clinical cases. Particulars: patient, simvastatin 20 mg; for blood ammonia: before test 72; for cholesterol in the blood: before test 249; for concentration of cholesterol in the blood: before 249.
The test system of data set [3] is patients. As to conditions: cited from earlier work.
For data set [4] the following is noted: in vivo; cited from earlier work.
For data set [5] the following is noted: cited from earlier work.
Data set [6] relates to patients. As to conditions: patient with abnormal heart function, 40 mg alone, within 6 months, from 0.70; cited from earlier work.

With `CCC(C)(C)C(=O)O[C@H]1C[C@@H](C)C=C2C=C[C@H](C)[C@H](CC[C@@H]3C[C@@H](O)CC(=O)O3)[C@H]21` [simvastatin], the “stability of simvastatin solid” value in data set [1] is “good stability”. Also, the ejection fraction stood at 0.62 in data set [2] (5 weeks, before test 0.59); 0.60 in data set [2] (10 weeks, before test 0.59); 0.63 in data set [2] (15 weeks, before test 0.59); 0.58 in data set [2] (20 weeks, before test 0.59); 0.62 in data set [2] (25 weeks, before test 0.59); 0.61 in data set [2] (30 weeks, before test 0.59). The ejection fraction in data set [2] (35 weeks, before test 0.59) was 0.61; in data set [2] (after 6 months, before 0.59), 0.61. The blood ammonia in data set [2] (5 weeks) was determined as 84 µg/L; in data set [2] (10 weeks), 69 µg/L; in data set [2] (15 weeks), 77 µg/L; in data set [2] (20 weeks), 108 µg/L; in data set [2] (25 weeks), 89 µg/L; in data set [2] (30 weeks) it was 93 µg/L. The same compound yielded a blood ammonia in data set [2] (35 weeks) of 162 µg/L. In addition, the “cholesterol in the blood” value in data set [2] (5 weeks) was found to be 202 mg/L; in data set [2] (10 weeks), 198 mg/L; in data set [2] (15 weeks), 194 mg/L; in data set [2] (20 weeks), 197 mg/L; in data set [2] (25 weeks) it was 192 mg/L; in data set [2] (30 weeks), 194 mg/L. The “cholesterol in the blood” value in data set [2] (35 weeks) came to 189 mg/L. Besides, the “concentration of blood ammonia” value in data set [2] (after 6 months, before 72) was determined as 162 ng/mL. Further, the “concentration of cholesterol in the blood” value worked out at 189 mg/L in data set [2] (after 6 months) and 202 mg/L in data set [2] (after one month).
On to `COC1=C(OC)C(=O)C(C/C=C(\C)CC/C=C(\C)CC/C=C(\C)CC/C=C(\C)CC/C=C(\C)CC/C=C(\C)CC/C=C(\C)CC/C=C(\C)CC/C=C(\C)CCC=C(C)C)=C(C)C1=O` [coenzyme Q10], for which the “outcome of patients close to death due to heart failure” value with patients [3] (19 patients) is listed as “becoming better”. Also, the “patients with three-year persistence” value in the data set with patients [3] (added to traditional therapy for heart diseases, traditional therapy 25%) is on record as 75%. The “amount at which no toxic and side effect is found” value in data set [4] was 100 mg/kg body weight/day. Besides, the “solubility in an aqueous medium” value in data set [5] was “very low”.
Turning to `O=C(O)CCCCC1CCSS1` (centres unmarked) [lipoic acid], the “amount at which no toxic and side effect is found” value in data set [4] was 300 mg/day.
In the case of `CC[C@H](C)C(=O)O[C@H]1C[C@@H](C)C=C2C=C[C@H](C)[C@H](CC[C@@H]3C[C@@H](O)CC(=O)O3)[C@H]21` [lovastatin], the “ejection fraction of heart” value in the data set with patients [6] is recorded as 0.54.
Turning to Vitamin E, the “amount at which no toxic and side effect is found” value in data set [4] is 500 mg/day.
Consider silymarin, for which, in data set [4], the “amount at which no toxic and side effect is found” value was 200 mg/kg body weight/day.
Take `C[N+](C)(C)C[C@H](O)CC(=O)[O-]` [L-Carnitine]: the “amount at which no toxic and side effect is found” value in data set [4] was 500 mg/kg body weight/day.

The values above are taken from US20080160001A1, “Antihypercholesterolemic Formulation with Less Side-Effects” (PFICKER PHARMACEUTICALS LTD., priority 2005, published 2008).
